Data reported in the supplement of paper PMC10307832.

What was measured:
Assay in all cases: relative viability (nuclei count vs DMSO), 5 days (fraction); higher = more cells survive
PC-3 [JPC-3] = test system: PC-3 [JPC-3]
Procedure, shortened: (§1)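 After 5 days of treatment, lung cancer cells in 1536-well plates were fixed and stained in a single step (final 0.05% Triton X-100, 1% formaldehyde, 1 ug/ml Hoechst) and their nuclei counted on 4× images. Treatment had been applied by pin tool the day after seeding as one drug alone or as a fixed anchor-drug dose with five library-drug doses (not always all listed) in √10 steps. Relative viability is the nuclei count of treated wells divided by that of vehicle wells, and values are medians of duplicate plates.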

NCI-H2126 = test system: NCI-H2126
Procedure, shortened: as §1

NCI-H1975 = test system: NCI-H1975
Procedure, shortened: as §1

NCI-H1915 = test system: NCI-H1915
Procedure, shortened: as §1

NCI-H1755 = test system: NCI-H1755
Procedure, shortened: as §1

LXF-289 = test system: LXF-289
Procedure, shortened: as §1

NCI-H647 = test system: NCI-H647
Procedure, shortened: as §1

NCI-H2228 = test system: NCI-H2228
Procedure, shortened: as §1

HCC-15 = test system: HCC-15
Procedure, shortened: as §1

NCI-H2347 = test system: NCI-H2347
Procedure, shortened: as §1

HOP-62 = test system: HOP-62
Procedure, shortened: as §1

A-427 = test system: A-427
Procedure, shortened: as §1

LC-2-ad = test system: LC-2-ad
Procedure, shortened: as §1

NCI-H1734 = test system: NCI-H1734
Procedure, shortened: as §1

NCI-H1792 = test system: NCI-H1792
Procedure, shortened: as §1

RERF-LC-KJ = test system: RERF-LC-KJ
Procedure, shortened: as §1

NCI-H358 = test system: NCI-H358
Procedure, shortened: as §1

HCC-78 = test system: HCC-78
Procedure, shortened: as §1

SK-LU-1 = test system: SK-LU-1
Procedure, shortened: as §1

SW 1573 = test system: SW 1573
Procedure, shortened: as §1

Structure (SMILES): Cc1sc2c(c1C)C(c1ccc(Cl)cc1)=N[C@@H](CC(=O)OC(C)(C)C)c1nnc(C)n1-2 [JQ1] + CS(=O)(=O)N1CCN(Cc2cc3nc(-c4cccc5[nH]ncc45)nc(N4CCOCC4)c3s2)CC1 [Pictilisib] (partner 1 µM)
- relative viability (PC-3 [JPC-3]; first compound 0.04 µM): 0.69
- relative viability (PC-3 [JPC-3]; first compound 0.1265 µM): 0.727
- relative viability (PC-3 [JPC-3]; first compound 0.4 µM): 0.443
- relative viability (PC-3 [JPC-3]; first compound 1.265 µM): 0.501
- relative viability (PC-3 [JPC-3]; first compound 4 µM): 0.382
- relative viability (NCI-H2126; first compound 0.04 µM): 0.484
- relative viability (NCI-H2126; first compound 0.1265 µM): 0.473
- relative viability (NCI-H2126; first compound 0.4 µM): 0.435
- relative viability (NCI-H2126; first compound 1.265 µM): 0.37
- relative viability (NCI-H2126; first compound 4 µM): 0.349
- relative viability (NCI-H1975; first compound 0.04 µM): 0.298
- relative viability (NCI-H1975; first compound 0.1265 µM): 0.246
- relative viability (NCI-H1975; first compound 0.4 µM): 0.27
- relative viability (NCI-H1975; first compound 1.265 µM): 0.214
- relative viability (NCI-H1975; first compound 4 µM): 0.204
- relative viability (NCI-H1915; first compound 0.04 µM): 0.89
- relative viability (NCI-H1915; first compound 0.1265 µM): 0.872
- relative viability (NCI-H1915; first compound 0.4 µM): 0.758
- relative viability (NCI-H1915; first compound 1.265 µM): 0.494
- relative viability (NCI-H1915; first compound 4 µM): 0.226
- relative viability (NCI-H1755; first compound 0.04 µM): 0.404
- relative viability (NCI-H1755; first compound 0.1265 µM): 0.419
- relative viability (NCI-H1755; first compound 0.4 µM): 0.421
- relative viability (NCI-H1755; first compound 1.265 µM): 0.208
- relative viability (NCI-H1755; first compound 4 µM): 0.185
- relative viability (LXF-289; first compound 0.04 µM): 0.792
- relative viability (LXF-289; first compound 0.1265 µM): 0.783
- relative viability (LXF-289; first compound 0.4 µM): 0.629
- relative viability (LXF-289; first compound 1.265 µM): 0.462
- relative viability (LXF-289; first compound 4 µM): 0.409
- relative viability (NCI-H647; first compound 0.04 µM): 0.428
- relative viability (NCI-H647; first compound 0.1265 µM): 0.3
- relative viability (NCI-H647; first compound 0.4 µM): 0.305
- relative viability (NCI-H647; first compound 1.265 µM): 0.188
- relative viability (NCI-H647; first compound 4 µM): 0.15
- relative viability (NCI-H2228; first compound 0.04 µM): 0.372
- relative viability (NCI-H2228; first compound 0.1265 µM): 0.327
- relative viability (NCI-H2228; first compound 0.4 µM): 0.259
- relative viability (NCI-H2228; first compound 1.265 µM): 0.245
- relative viability (NCI-H2228; first compound 4 µM): 0.201
- relative viability (HCC-15; first compound 0.04 µM): 0.67
- relative viability (HCC-15; first compound 0.4 µM): 0.663
- relative viability (HCC-15; first compound 1.265 µM): 0.366
- relative viability (HCC-15; first compound 4 µM): 0.343
- relative viability (NCI-H2347; first compound 0.04 µM): 0.791
- relative viability (NCI-H2347; first compound 0.1265 µM): 0.529
- relative viability (NCI-H2347; first compound 0.4 µM): 0.542
- relative viability (NCI-H2347; first compound 1.265 µM): 0.334
- relative viability (NCI-H2347; first compound 4 µM): 0.372
- relative viability (HOP-62; first compound 0.04 µM): 0.815
- relative viability (HOP-62; first compound 0.1265 µM): 0.56
- relative viability (HOP-62; first compound 0.4 µM): 0.249
- relative viability (HOP-62; first compound 1.265 µM): 0.0959
- relative viability (HOP-62; first compound 4 µM): 0.101
- relative viability (A-427; first compound 0.04 µM): 0.81
- relative viability (A-427; first compound 0.1265 µM): 0.748
- relative viability (A-427; first compound 0.4 µM): 0.674
- relative viability (A-427; first compound 1.265 µM): 0.511
- relative viability (A-427; first compound 4 µM): 0.465
- relative viability (LC-2-ad; first compound 0.04 µM): 0.386
- relative viability (LC-2-ad; first compound 0.1265 µM): 0.605
- relative viability (LC-2-ad; first compound 0.4 µM): 0.263
- relative viability (LC-2-ad; first compound 1.265 µM): 0.121
- relative viability (LC-2-ad; first compound 4 µM): 0.117
- relative viability (NCI-H1734; first compound 0.04 µM): 0.466
- relative viability (NCI-H1734; first compound 0.1265 µM): 0.444
- relative viability (NCI-H1734; first compound 0.4 µM): 0.503
- relative viability (NCI-H1734; first compound 1.265 µM): 0.296
- relative viability (NCI-H1734; first compound 4 µM): 0.327
- relative viability (NCI-H1792; first compound 0.04 µM): 0.273
- relative viability (NCI-H1792; first compound 0.4 µM): 0.31
- relative viability (NCI-H1792; first compound 1.265 µM): 0.188
- relative viability (NCI-H1792; first compound 4 µM): 0.174
- relative viability (RERF-LC-KJ; first compound 0.04 µM): 0.579
- relative viability (RERF-LC-KJ; first compound 0.1265 µM): 0.661
- relative viability (RERF-LC-KJ; first compound 0.4 µM): 0.595
- relative viability (RERF-LC-KJ; first compound 1.265 µM): 0.304
- relative viability (RERF-LC-KJ; first compound 4 µM): 0.337
- relative viability (NCI-H358; first compound 0.04 µM): 0.329
- relative viability (NCI-H358; first compound 0.1265 µM): 0.431
- relative viability (NCI-H358; first compound 0.4 µM): 0.376
- relative viability (NCI-H358; first compound 1.265 µM): 0.386
- relative viability (NCI-H358; first compound 4 µM): 0.336
- relative viability (HCC-78; first compound 0.04 µM): 0.212
- relative viability (HCC-78; first compound 0.1265 µM): 0.313
- relative viability (HCC-78; first compound 0.4 µM): 0.185
- relative viability (HCC-78; first compound 1.265 µM): 0.214
- relative viability (HCC-78; first compound 4 µM): 0.192
- relative viability (SK-LU-1; first compound 0.04 µM): 0.581
- relative viability (SK-LU-1; first compound 0.1265 µM): 0.438
- relative viability (SK-LU-1; first compound 0.4 µM): 0.456
- relative viability (SK-LU-1; first compound 1.265 µM): 0.256
- relative viability (SK-LU-1; first compound 4 µM): 0.171
- relative viability (SW 1573; first compound 0.04 µM): 0.486
- relative viability (SW 1573; first compound 0.1265 µM): 0.443
- relative viability (SW 1573; first compound 0.4 µM): 0.421
- relative viability (SW 1573; first compound 1.265 µM): 0.212
- relative viability (SW 1573; first compound 4 µM): 0.221
